≈ marks a conversion by molar mass, not a printed value. Calls of active or inactive are those of the source. The calls are words filed in the database; no cut-off is given here.

One experiment concerns Staphylococcus aureus. Nature of the experiment: Antimicrobial activity against Staphylococcus aureus BIG 52 after 18 hrs by micro dilution method. The class given is functional. The note with it: BIG 52, 18 h.
In the case of `O=C(O)CC(O)(CC(=O)N1CCN(c2cc3c(cc2F)c(=O)c(C(=O)O)cn3C2CC2)CC1)C(=O)O` (configuration not stated), the MIC (in general, the lowest concentration found to suppress growth) is 16 µg/mL (≈ 31.7 µM).

In the next experiment the test system is Staphylococcus epidermidis. The experiment in a line: Antimicrobial activity against Staphylococcus epidermidis NCTC 11047 after 18 hrs by micro dilution method. The class given is functional. Conditions: NCTC 11047, 18 h.
On to `O=C(O)CC(O)(CC(=O)N1CCN(c2cc3c(cc2F)c(=O)c(C(=O)O)cn3C2CC2)CC1)C(=O)O` (configuration not stated), for which the lowest concentration to inhibit growth (MIC) was 16 µg/mL (≈ 31.7 µM).

In the next experiment the test system is Staphylococcus epidermidis. Nature of the experiment: Antimicrobial activity against Staphylococcus epidermidis NCTC 2749 after 18 hrs by micro dilution method. The class given is functional. The note with it: NCTC 2749, 18 h.
`O=C(O)CC(O)(CC(=O)N1CCN(c2cc3c(cc2F)c(=O)c(C(=O)O)cn3C2CC2)CC1)C(=O)O` (configuration not stated) gave an MIC of 8 µg/mL (≈ 15.8 µM).

In the next experiment the test system is Staphylococcus haemolyticus. Nature of the experiment: Antimicrobial activity against Staphylococcus haemolyticus NCTC 11042 after 18 hrs by micro dilution method. The class given is functional. Conditions: NCTC 11042, 18 h.
Take `O=C(O)CC(O)(CC(=O)N1CCN(c2cc3c(cc2F)c(=O)c(C(=O)O)cn3C2CC2)CC1)C(=O)O` (configuration not stated): the MIC is 16 µg/mL (≈ 31.7 µM).

The subject of the next experiment is Escherichia coli. The experiment in a line: Antimicrobial activity against Escherichia coli NCTC 10418 after 18 hrs by micro dilution method. The class given is functional. Conditions: NCTC 10418, 18 h.
Regarding `O=C(O)CC(O)(CC(=O)N1CCN(c2cc3c(cc2F)c(=O)c(C(=O)O)cn3C2CC2)CC1)C(=O)O` (configuration not stated), inhibition of growth (MIC) required 0.25 µg/mL (≈ 0.495 µM).

Another experiment has as its system Escherichia coli. The experiment in a line: Antimicrobial activity against Escherichia coli BIG 0046 after 18 hrs by micro dilution method. The class given is functional. The note with it: BIG 0046, 18 h.
`O=C(O)CC(O)(CC(=O)N1CCN(c2cc3c(cc2F)c(=O)c(C(=O)O)cn3C2CC2)CC1)C(=O)O` (configuration not stated): the MIC is > 36 µg/mL.

In another experiment the test system is Pseudomonas aeruginosa. Nature of the experiment: Antimicrobial activity against Pseudomonas aeruginosa environmental isolate BIG 39 after 18 hrs by micro dilution method. The format is functional. Conditions: BIG 39, 18 h.
`O=C(O)CC(O)(CC(=O)N1CCN(c2cc3c(cc2F)c(=O)c(C(=O)O)cn3C2CC2)CC1)C(=O)O` (configuration not stated) came in with an MIC of 4 µg/mL (≈ 7.91 µM).

The next experiment relates to Pseudomonas aeruginosa. The experiment in a line: Antimicrobial activity against Pseudomonas aeruginosa BIG 37 clinical isolate after 18 hrs by micro dilution method. The class given is functional. The note with it: BIG 37, 18 h.
`O=C(O)CC(O)(CC(=O)N1CCN(c2cc3c(cc2F)c(=O)c(C(=O)O)cn3C2CC2)CC1)C(=O)O` (configuration not stated) yielded an MIC of 16 µg/mL (≈ 31.7 µM).

For the next experiment, the system named is Pseudomonas aeruginosa. The experiment in a line: Antimicrobial activity against Pseudomonas aeruginosa NCTC 10662 after 18 hrs by micro dilution method. The format is functional. Conditions: NCTC 10662, 18 h.
Take `O=C(O)CC(O)(CC(=O)N1CCN(c2cc3c(cc2F)c(=O)c(C(=O)O)cn3C2CC2)CC1)C(=O)O` (configuration not stated): 4 µg/mL (≈ 7.91 µM) was the least that counted as inhibitory (MIC).

The subject of a further experiment is Pseudomonas aeruginosa. The experiment in a line: Antimicrobial activity against Pseudomonas aeruginosa BIG 63 after 18 hrs by micro dilution method. The note with it: BIG 63, 18 h. The class given is functional.
Turning to `O=C(O)CC(O)(CC(=O)N1CCN(c2cc3c(cc2F)c(=O)c(C(=O)O)cn3C2CC2)CC1)C(=O)O` (configuration not stated), the MIC came out at 4 µg/mL (≈ 7.91 µM).

A further experiment deals with Serratia marcescens. The experiment in a line: Antimicrobial activity against Serratia marcescens BIG 11 NCTC 1377 after 18 hrs by micro dilution method. The note with it: BIG 11 NCTC 1377, 18 h. The format is functional.
In turn, `O=C(O)CC(O)(CC(=O)N1CCN(c2cc3c(cc2F)c(=O)c(C(=O)O)cn3C2CC2)CC1)C(=O)O` (configuration not stated) returned an MIC of 1 µg/mL (≈ 1.98 µM).

Another experiment relates to Burkholderia cepacia. The experiment in a line: Antimicrobial activity against Burkholderia cepacia BIG 9 NCTC 10744 after 18 hrs by micro dilution method. The class given is functional. The note with it: BIG 9 NCTC 10744, 18 h.
In the case of `O=C(O)CC(O)(CC(=O)N1CCN(c2cc3c(cc2F)c(=O)c(C(=O)O)cn3C2CC2)CC1)C(=O)O` (configuration not stated), the MIC came out at 16 µg/mL (≈ 31.7 µM).

Another experiment relates to Burkholderia cepacia. Nature of the experiment: Antimicrobial activity against Burkholderia cepacia BIG 117 after 18 hrs by micro dilution method. The format is functional. Conditions: BIG 117, 18 h.
In the case of `O=C(O)CC(O)(CC(=O)N1CCN(c2cc3c(cc2F)c(=O)c(C(=O)O)cn3C2CC2)CC1)C(=O)O` (configuration not stated), the lowest concentration to inhibit growth (MIC) was 16 µg/mL (≈ 31.7 µM).

The next experiment relates to Burkholderia cepacia. The experiment in a line: Antimicrobial activity against Burkholderia cepacia BIG 118 after 18 hrs by micro dilution method. Conditions: BIG 118, 18 h. The class given is functional.
`O=C(O)CC(O)(CC(=O)N1CCN(c2cc3c(cc2F)c(=O)c(C(=O)O)cn3C2CC2)CC1)C(=O)O` (configuration not stated) showed an MIC of 16 µg/mL (≈ 31.7 µM).

In the next experiment the test system is Burkholderia cepacia. Nature of the experiment: Antimicrobial activity against Burkholderia cepacia BIG 119 after 18 hrs by micro dilution method. The format is functional. The note with it: BIG 119, 18 h.
Turning to `O=C(O)CC(O)(CC(=O)N1CCN(c2cc3c(cc2F)c(=O)c(C(=O)O)cn3C2CC2)CC1)C(=O)O` (configuration not stated), the MIC is > 36 µg/mL.

The next experiment deals with Burkholderia cepacia. The experiment in a line: Antimicrobial activity against Burkholderia cepacia BIG 120 after 18 hrs by micro dilution method. The class given is functional. The note with it: BIG 120, 18 h.
`O=C(O)CC(O)(CC(=O)N1CCN(c2cc3c(cc2F)c(=O)c(C(=O)O)cn3C2CC2)CC1)C(=O)O` (configuration not stated): inhibition of growth (MIC) required 16 µg/mL (≈ 31.7 µM).

A further experiment concerns Burkholderia cepacia. Nature of the experiment: Antimicrobial activity against Burkholderia cepacia BIG 121 after 18 hrs by micro dilution method. The format is functional. Conditions: BIG 121, 18 h.
For the compound `O=C(O)CC(O)(CC(=O)N1CCN(c2cc3c(cc2F)c(=O)c(C(=O)O)cn3C2CC2)CC1)C(=O)O` (configuration not stated), the MIC was > 36 µg/mL.

Another experiment concerns Stenotrophomonas maltophilia. The experiment in a line: Antimicrobial activity against Stenotrophomonas maltophilia N1127 after 18 hrs by micro dilution method. The format is functional. The note with it: N1127, 18 h.
The compound `O=C(O)CC(O)(CC(=O)N1CCN(c2cc3c(cc2F)c(=O)c(C(=O)O)cn3C2CC2)CC1)C(=O)O` (configuration not stated) gave an MIC of 32 µg/mL (≈ 63.3 µM).

In the next experiment the test system is Stenotrophomonas maltophilia. The experiment in a line: Antimicrobial activity against Stenotrophomonas maltophilia N1124 after 18 hrs by micro dilution method. Conditions: N1124, 18 h. The format is functional.
For the compound `O=C(O)CC(O)(CC(=O)N1CCN(c2cc3c(cc2F)c(=O)c(C(=O)O)cn3C2CC2)CC1)C(=O)O` (configuration not stated), the MIC is > 36 µg/mL.

In the next experiment the test system is Stenotrophomonas maltophilia. The experiment in a line: Antimicrobial activity against Stenotrophomonas maltophilia N1119 after 18 hrs by micro dilution method. The format is functional. Conditions: N1119, 18 h.
Compound `O=C(O)CC(O)(CC(=O)N1CCN(c2cc3c(cc2F)c(=O)c(C(=O)O)cn3C2CC2)CC1)C(=O)O` (configuration not stated) registered an MIC of 32 µg/mL (≈ 63.3 µM).

Test system in another experiment: not listed separately
Nature of the experiment: Inhibition of DNA gyrase (unknown origin) assessed as reduction in supercoiled form of DNA at 20 uM using ethidium bromide staining by gel electrophoresis.
Details: not given
With `O=C(O)CC(O)(CC(=O)N1CCN(c2cc3c(cc2F)c(=O)c(C(=O)O)cn3C2CC2)CC1)C(=O)O` (configuration not stated), the inhibition result is “Active”.

The test system of another experiment is Staphylococcus aureus. Nature of the experiment: Ratio of compound MIC to ciprofloxacin MIC for Staphylococcus aureus (Oxford) NCTC 6571 after 18 hrs by micro dilution method. The format is functional.
Details: not given
Turning to `O=C(O)CC(O)(CC(=O)N1CCN(c2cc3c(cc2F)c(=O)c(C(=O)O)cn3C2CC2)CC1)C(=O)O` (configuration not stated), the Ratio is listed as 41.8.

The record behind these values is ChEMBL document CHEMBL3351986, “Probing linker design in citric acid-ciprofloxacin conjugates” (2014).
